The values that follow are results of earlier work, collected in US4713385A, “Alkoxy and dialkoxyalkyl esters of dihydrolysergic acid and related compounds useful as 5HT receptor antagonists” (Eli Lilly and Company, priority 1985, dated 1987).

Data set [1] addresses vascular dopaminergic receptors.
The test system of data set [2] is 5HT2 receptors. The conditions noted are these: Garbrecht compounds; in words.
The test system of data set [3] is 5HT2 receptors. The conditions noted are these: effect mediated by 5HT2 receptors; in words.
Data set [4] addresses vascular alpha adrenergic receptors.
Data set [5] concerns the target vascular histaminergic receptors.

For the compound `CC(O)C(C)OC(=O)[C@@H]1C[C@@H]2c3cccc4c3c(cn4C(C)C)C[C@H]2N(C)C1` (stereo partly drawn) [LY53857, 1-isopropyl-6-methyl-8β-(1-methyl-2-hydroxy)propoxycarbonyl-5R-ergoline], the Kd in data set [1] (Cohen et al. J.P.E.T., 227, 327 (1983), read-out: Kdissoc (vascular dopaminergic receptors)) is ~10 µM; in data set [4] (Cohen et al. J.P.E.T., 227, 327 (1983), read-out: Kdissoc (vascular alpha adrenergic receptors)), ~10 µM; in data set [5] (Cohen et al. J.P.E.T., 227, 327 (1983), read-out: Kdissoc (vascular histaminergic receptors)), ~10 µM. The “affinity for vascular dopaminergic receptors” value in data set [1] (in words) was “minimal affinity”. In addition, the “peripheral serotonin antagonist activity against 5HT2 receptors” value in data set [2] is recorded as “most active peripheral serotonin antagonist”. In data set [3], the “antagonism of vascular contraction to serotonin” value is reported as “potent antagonist of vascular contraction to serotonin”. The “affinity for vascular alpha adrenergic receptors” value in data set [4] (in words) is on record as “minimal affinity”. Also, the “affinity for vascular histaminergic receptors” value in data set [5] (in words) is listed as “minimal affinity”.
